Series [1] deals with Mycobacterium tuberculosis H37Rv. Kind of series: In vitro drug interaction, checkerboard titration by 96-well microdilution. The series is classed as cell-based.
The subject of series [2] is Mtb. Particulars: EBA study; cited from earlier work.
In series [3] the test system is Mtb. Particulars: at its MIC and at doses used to treat adult pulmonary TB; cited from earlier work.
Series [4] deals with Mtb. Particulars: cited from earlier work.
In series [5] the test system is Mtb. Particulars: cited from earlier work. This is another data set of the same source.
The test system of series [6] is Mtb gene clusters GC82 and GC120, iniBAC operon. Particulars: cited from earlier work.
For series [7], the system named is Mtb. Particulars: cited from earlier work. The source holds these as a separate data set.
The nature of series [8]: PK evaluation on coadministration with second-line drugs. Particulars: mice, SQ109 and MXF coadministered.
The subject of series [9] is Mtb. To be noted: cited from earlier work. The source holds these as a separate data set.
Series [10] deals with Mycobacterium tuberculosis H37Rv. To be noted: cited from earlier work.
For series [11] the following is noted: in vivo; cited from earlier work.
Series [12] deals with Mtb. Particulars: in vitro; cited from earlier work.
For series [13], the system named is Mtb. Particulars: mouse model of TB; cited from earlier work.
Series [14] deals with Mtb. Particulars: versus linezolid; cited from earlier work.
Series [15] concerns Mtb. To be noted: cited from earlier work. The source holds these as a separate data set.

Read-outs that look alike come from different tables or passages of the source.

For the compound `CC(C)/N=c1\cc2n(-c3ccc(Cl)cc3)c3ccccc3nc-2cc1Nc1ccc(Cl)cc1` [CFZ, Clofazimine, reference compound], the MIC in series [1] (Mycobacterium tuberculosis, H37RV, read-out: MIC Alone) came to 0.5 µg/mL. Also, the “MIC Combination” value in series [1] (checkerboard SQ109 + CFZ, Mtb H37Rv) came out at 0.062 µg/mL.

As for `C[C@]1(COc2ccc(N3CCC(Oc4ccc(OC(F)(F)F)cc4)CC3)cc2)Cn2cc([N+](=O)[O-])nc2O1` [Delamanid], the early bactericidal activity entry in the series on Mtb [2] is given as “showed activity”.

On to `CC[C@@H](CO)NCCN[C@@H](CC)CO` [EMB, ethambutol], for which the bacteriostatic or bactericidal entry in the series on Mtb [3] is “bacteriostatic”. Further, in the series with Mtb [4], the “Effect on acid-fastness of Mtb” value is listed as “Decreases”. Moreover, in the series on Mtb [5], the “MIC on Mtb” value was 5 to 7 µg/mL. Besides, the “Activity on Mtb gene clusters GC82 and GC120” value in [6] was “Upregulates”.

Regarding `COc1c(N2C[C@@H]3CCCN[C@@H]3C2)c(F)cc2c(=O)c(C(=O)O)cn(C3CC3)c12` [MXF, moxifloxacin, reference compound], the “activity in mouse models” value with Mtb [7] is on record as “comparable to INH”. In series [8], the “pharmacology profile on coadministration” value is reported as “not affected”.

`Cc1ncc([N+](=O)[O-])n1CCO` [Metronidazole]: the “efficacy in mouse models of latent TB” value in the series on Mtb [9] is “not effective”.

As to `O=[N+]([O-])c1cn2c(n1)OC[C@@H](OCc1ccc(OC(F)(F)F)cc1)C2` [PA-824], the early bactericidal activity entry in the series on Mtb [2] was “showed activity”.

In the case of `CO[C@H]1/C=C/O[C@@]2(C)Oc3c(C)c(O)c4c(O)c(c(/C=N/N5CCN(C)CC5)c(O)c4c3C2=O)NC(=O)/C(C)=C\C=C\[C@H](C)[C@H](O)[C@@H](C)[C@@H](O)[C@@H](C)[C@H](OC(C)=O)[C@@H]1C` [RIF, rifampicin, reference compound], the “improvement of RIF activity” value in series [10] was “eightfold”.

As to `CC(=O)NC[C@H]1CN(c2ccc(N3CCSCC3)c(F)c2)C(=O)O1` [Sutezolid], the safety profile result in [11] is “improved safety profile compared with linezolid”. The “antimycobacterial activity versus linezolid” value in the series on Mtb [12] and with Mtb [13] was “better antimycobacterial activity” in each case. For the same compound, the “killing in ex vivo whole-blood culture test” value with Mtb [14] was “better time-dependent killing”.

As for `COc1nc2ccc(Br)cc2cc1[C@@H](c1ccccc1)[C@@](O)(CCN(C)C)c1cccc2ccccc12` [bedaquiline], the postantibiotic effect was 14 h in the series with Mtb [15] (bedaquiline with SQ109) and 9 h in the series on Mtb [15] (bedaquiline without SQ109). For the same compound, in series [10], the “improvement of the MIC of bedaquiline” value is reported as “four- to eight-times”.

With `COc1c(N2CCNC(C)C2)c(F)cc2c(=O)c(C(=O)O)cn(C3CC3)c12` (stereo not drawn) [gatifloxacin], the “activity in mouse models” value with Mtb [7] is on record as “comparable to INH”.

`CC(=O)NC[C@H]1CN(c2ccc(N3CCOCC3)c(F)c2)C(=O)O1` [linezolid]: the early bactericidal activity entry with Mtb [2] is given as “minimal killing activity”.

(Values after PMC3480206 (Future microbiology, 2012).)
